In brackets after ≈: the same amount, converted by molar mass. Like-named read-outs stand apart in the source and are kept apart here.

One series has as its system NCI-H358 cells. As to the kind of experiment: NCI-H358 CTG proliferation assay (120 h) (NSCLC, G12C). The series is classed as cell-based, human. The following applies: assay 2, CTG, read-out: H358 (assay 2) IC50. The gist of the method: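 NCI-H358 cells (KRAS G12C) were seeded at 2000/well (assay 1) or 200/well (assay 2) in RPMI-1640 + 10% FCS and dosed with a logarithmic series, DMSO-normalized. After 120 h, viability was read by CellTiter-Glo luminescence as percent of DMSO control, with a T0 read at dosing. IC50 came from a four-parameter fit.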

The next series concerns LOVO cells. As to the kind of experiment: LOVO CTG proliferation assay (120 h) (CRC, G13D). The series is classed as cell-based. The following applies: CTG 120 h. The gist of the method: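 LOVO cells, 1000 per well in DMEM + 10% FCS, were plated overnight and then dosed with compound from DMSO stock. After 120 h at 37 °C, viability was read by CellTiter-Glo luminescence as a percentage of DMSO controls. IC50 was derived by four-parameter non-linear regression.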

Series [1] can be described thus: Solubility measurement (DMSO solution method), McIlvaine buffer pH 4.5 or 6.8. In kind it is physicochemical. The following applies: DMSO stock diluted to 250 μM, 24 h shaking at ambient temperature; for solubility at 24 h: aqueous buffer, kinetic from dmso stock. The gist of the method: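 DMSO stock diluted into McIlvaine buffer, pH 4.5 or 6.8, to 250 µM final, shaken 24 h at ambient temperature. Precipitate removed by filtration; filtrate quantified by LC-UV against a fully dissolved reference in acetonitrile/water 1:1.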

[2] abbreviates: McIlvaine buffer pH 4.5, read-out: solubility pH 4.5.
[3] abbreviates: McIlvaine buffer pH 6.8, read-out: solubility pH 6.8.

A word on the IC50: it is the concentration at which inhibition is half-maximal. As for `C[C@H](Oc1cc(-n2ccc(C(=O)N[C@H]3CCOC3)n2)nc(-c2noc3c2CCC[C@@]32CCCc3sc(N)c(C#N)c32)n1)[C@@H]1CCCN1C` [II-193], the concentration for half-maximal inhibition (IC50) came out at 1 nM with NCI-H358 cells and 12 nM with LOVO cells. Further, the “solubility pH 4.5” value in series [1] (McIlvaine buffer pH 4.5) was found to be 15 μg/ml. In addition, the “solubility pH 6.8” value in series [1] (McIlvaine buffer pH 6.8) is below 1 μg/ml.

In general, solubility refers to the concentration that dissolves in the medium under given conditions. `C[C@H](Oc1cc(-n2ccc(C(=O)N(C)C3COC3)n2)nc(-c2noc3c2CCC[C@@]32CCCc3sc(N)c(C#N)c32)n1)[C@@H]1CCCN1C` [II-194]: the half-inhibitory concentration (IC50) in the series on NCI-H358 cells (Homo sapiens) came to 3 nM; in the series with LOVO cells (Homo sapiens), 13 nM. For the same compound, the solubility at 24 h in series [1] (setting [2]) came to 116 µg/mL (≈ 173 µM); in series [1] (setting [3]), 31 µg/mL (≈ 46.3 µM).

As for `COCCNC(=O)c1ccn(-c2cc(O[C@@H](C)[C@@H]3CCCN3C)nc(-c3noc4c3CCC[C@@]43CCCc4sc(N)c(C#N)c43)n2)n1` [II-195], the IC50 in the series on NCI-H358 cells (Homo sapiens) came out at 4 nM; in the series on LOVO cells (Homo sapiens), 12 nM. Besides, the solubility at 24 h stood at 131 µg/mL (≈ 199 µM) in series [1] (setting [2]) and 71 µg/mL (≈ 108 µM) in series [1] (setting [3]).

Take `CO[C@H]1CCN(C)[C@@H]1[C@H](C)Oc1cc(-n2ccc(C(=O)N[C@@H](C)c3ccccn3)n2)nc(-c2noc3c2CCC[C@@]32CCCc3sc(N)c(C#N)c32)n1` [II-196]: the IC50 in the series on NCI-H358 cells (Homo sapiens) was 2 nM; in the series with LOVO cells (Homo sapiens), 15 nM. The results for the solubility at 24 h in series [1] (setting [2]) and in series [1] (setting [3]) were 94 µg/mL (≈ 128 µM) and below 1 µg/mL, respectively.

`CO[C@H]1CCN(C)[C@@H]1[C@H](C)Oc1cc(-n2ccc(C(=O)N[C@@H]3CCOC3)n2)nc(-c2noc3c2CCC[C@@]32CCCc3sc(N)c(C#N)c32)n1` [II-197]: the half-maximal inhibitory concentration (IC50) was determined as 1 nM with NCI-H358 cells (Homo sapiens) and 14 nM with LOVO cells (Homo sapiens). Further, the solubility at 24 h in series [1] (setting [2]) was above 173 µg/mL; in series [1] (setting [3]) it was 5 µg/mL (≈ 7.14 µM).

Turning to `CO[C@H]1CCN(C)[C@@H]1[C@H](C)Oc1cc(-n2ccc(C(=O)N[C@H]3CCOC3)n2)nc(-c2noc3c2CCC[C@@]32CCCc3sc(N)c(C#N)c32)n1` [II-198], the IC50 in the series with NCI-H358 cells (Homo sapiens) came out at 1 nM; in the series on LOVO cells (Homo sapiens), 25 nM. The solubility at 24 h was 12 µg/mL (≈ 17.1 µM) in series [1] (setting [2]) and below 1 µg/mL in series [1] (setting [3]).

On to `CO[C@H]1CCN(C)[C@@H]1[C@H](C)Oc1cc(-n2ccc(C(=O)N(C)C3COC3)n2)nc(-c2noc3c2CCC[C@@]32CCCc3sc(N)c(C#N)c32)n1` [II-199], for which the half-maximal inhibitory concentration (IC50) in the series on NCI-H358 cells (Homo sapiens) stood at 5 nM; with LOVO cells (Homo sapiens), 34 nM. In addition, the solubility at 24 h is above 163 µg/mL in series [1] (setting [2]) and 9 µg/mL (≈ 12.9 µM) in series [1] (setting [3]).

On to `COCCNC(=O)c1ccn(-c2cc(O[C@@H](C)[C@@H]3[C@@H](OC)CCN3C)nc(-c3noc4c3CCC[C@@]43CCCc4sc(N)c(C#N)c43)n2)n1` [II-200], for which the concentration for half-maximal inhibition (IC50) with NCI-H358 cells (Homo sapiens) worked out at 3 nM; in the series on LOVO cells (Homo sapiens) it was 15 nM. The solubility at 24 h in series [1] (setting [2]) was above 163 µg/mL; in series [1] (setting [3]) it was 4 µg/mL (≈ 5.82 µM).

Turning to `CO[C@H]1CCN(C)[C@@H]1[C@H](C)Oc1cc(-n2ccc(C(N)=O)n2)nc(-c2noc3c2CCC[C@@]32CCCc3sc(N)c(C#N)c32)n1` [II-201], the IC50 stood at 6 nM with NCI-H358 cells (Homo sapiens) and 33 nM in the series on LOVO cells (Homo sapiens). Besides, the results for the solubility at 24 h in series [1] (setting [2]) and in series [1] (setting [3]) were above 128 µg/mL and 6 µg/mL (≈ 9.53 µM), respectively.

As to `C[C@H](Oc1cc(-n2cc3ccn([C@H]4CCOC4)c(=O)c3n2)nc(-c2noc3c2CCC[C@@]32CCCc3sc(N)c(C#N)c32)n1)[C@@H]1CCCN1C` [II-202], the figures for the half-inhibitory concentration (IC50) with NCI-H358 cells (Homo sapiens) and in the series with LOVO cells (Homo sapiens) were 5 nM and 103 nM, respectively. For the same compound, the solubility at 24 h in series [1] (setting [2]) is above 166 µg/mL; in series [1] (setting [3]) it was 58 µg/mL (≈ 83.6 µM).

On to `C[C@H](Oc1cc(-n2cc3ccn([C@@H]4CCOC4)c(=O)c3n2)nc(-c2noc3c2CCC[C@@]32CCCc3sc(N)c(C#N)c32)n1)[C@@H]1CCCN1C` [II-203], for which the IC50 with NCI-H358 cells (Homo sapiens) was found to be 5 nM; in the series with LOVO cells (Homo sapiens), 70 nM. Besides, the figures for the solubility at 24 h in series [1] (setting [2]) and in series [1] (setting [3]) were above 159 µg/mL and 65 µg/mL (≈ 93.7 µM), respectively.

Turning to `C[C@H](Oc1cc(-n2cc3ccn(C[C@H]4CCOC4)c(=O)c3n2)nc(-c2noc3c2CCC[C@@]32CCCc3sc(N)c(C#N)c32)n1)[C@@H]1CCCN1C` [II-204], the IC50 with NCI-H358 cells (Homo sapiens) came to 5 nM; in the series with LOVO cells (Homo sapiens) it was 46 nM. In addition, the solubility at 24 h in series [1] (setting [2]) came out at 4 µg/mL (≈ 5.65 µM); in series [1] (setting [3]), 5 µg/mL (≈ 7.06 µM).

Take `C[C@H](Oc1cc(-n2cc3ccn(C4CCOCC4)c(=O)c3n2)nc(-c2noc3c2CCC[C@@]32CCCc3sc(N)c(C#N)c32)n1)[C@@H]1CCCN1C` [II-206]: the IC50 with NCI-H358 cells (Homo sapiens) amounted to 4 nM; with LOVO cells (Homo sapiens), 31 nM. In addition, the solubility at 24 h in series [1] (setting [2]) is 17 µg/mL (≈ 24 µM); in series [1] (setting [3]), 2 µg/mL (≈ 2.83 µM).

As for `[2H]C([2H])([2H])N1C[C@H](F)C[C@H]1[C@H](C)Oc1cc(N2CCN(C([2H])([2H])[2H])C3(CC3)C2)nc(-c2noc3c2CCC[C@@]32CCCc3sc(N)c(C#N)c32)n1` [II-207], the IC50 in the series on NCI-H358 cells (Homo sapiens) is 287 nM; in the series on LOVO cells (Homo sapiens), 310 nM. The solubility at 24 h in series [1] (setting [2]) was above 134 µg/mL; in series [1] (setting [3]) it was below 1 µg/mL.

`C[C@H](Oc1cc(-n2ccc(-c3cn(C4CCOCC4)nn3)n2)nc(-c2noc3c2CCC[C@@]32CCCc3sc(N)c(C#N)c32)n1)[C@@H]1CCCN1C` [II-210]: the IC50 in the series on NCI-H358 cells (Homo sapiens) worked out at 2 nM; in the series with LOVO cells (Homo sapiens), 35 nM. For the same compound, the results for the solubility at 24 h in series [1] (setting [2]) and in series [1] (setting [3]) were 5 µg/mL (≈ 7.06 µM) and below 1 µg/mL, respectively.

Regarding `C[C@H](Oc1cc(-n2ccc(-c3cn([C@@H]4CCOC4)nn3)n2)nc(-c2noc3c2CCC[C@@]32CCCc3sc(N)c(C#N)c32)n1)[C@@H]1CCCN1C` [II-211], the half-maximal inhibitory concentration (IC50) with NCI-H358 cells (Homo sapiens) stood at 1 nM; in the series with LOVO cells (Homo sapiens), 40 nM. For the same compound, the solubility at 24 h in series [1] (setting [2]) was 20 µg/mL (≈ 28.8 µM); in series [1] (setting [3]), 4 µg/mL (≈ 5.77 µM).

For the compound `C[C@H](Oc1cc(-n2ccc(-c3cn([C@H]4CCOC4)nn3)n2)nc(-c2noc3c2CCC[C@@]32CCCc3sc(N)c(C#N)c32)n1)[C@@H]1CCCN1C` [II-212], the results for the half-maximal inhibitory concentration (IC50) in the series on NCI-H358 cells (Homo sapiens) and with LOVO cells (Homo sapiens) were 1 nM and 35 nM, respectively. The results for the solubility at 24 h in series [1] (setting [2]) and in series [1] (setting [3]) were 16 µg/mL (≈ 23.1 µM) and below 1 µg/mL, respectively.

As to `C[C@H](Oc1cc(-n2ccc(-c3cn(CC4(C)COC4)nn3)n2)nc(-c2noc3c2CCC[C@@]32CCCc3sc(N)c(C#N)c32)n1)[C@@H]1CCCN1C` [II-213], the results for the 50% inhibitory concentration (IC50) in the series on NCI-H358 cells (Homo sapiens) and with LOVO cells (Homo sapiens) were 1 nM and 117 nM, respectively. The values for the solubility at 24 h in series [1] (setting [2]) and in series [1] (setting [3]) were 23 µg/mL (≈ 32.5 µM) and 2 µg/mL (≈ 2.83 µM), respectively.

Values taken from US20240174690A1, “ANNULATED 2-AMINO-3-CYANO THIOPHENES AND DERIVATIVES FOR THE TREATMENT OF CANCER” (BOEHRINGER INGELHEIM INTERNATIONAL GMBH, priority 2021, published 2024).
